Experimental findings from US7071168B2, “Anti-cancer compounds and methods related thereto” (The Regents of the University of Colorado, priority 1998, dated 2006) are described below.

Non-standard residues stand in square brackets, D forms with d. No end group written: not given here. Oic = O=C(O)[C@@H]1C[C@@H]2CCCC[C@@H]2N1; dTic = O=C(O)[C@H]1Cc2ccccc2CN1

The subject of one assay is bradykinin response of isolated guinea pig ileum. Description: Anti-bradykinin activity on isolated guinea pig ileum. As to conditions: Table 1; higher numbers indicate higher potency. As for the experimental part: (§1) In general, Anti-bradykinin activity was determined by the classical guinea pig ileum assay and on Chinese hamster ovary (CHO) cells expressing cloned human bradykinin B2 receptors. Anti-tumor activity was determined on cultured human cancer cell lines using the standard tetrazolium (MTT) assay.
Male Hartley guinea pigs that had been deprived of food overnight were sacrificed, and sections of terminal ileum, 25 mm in length, were dissected, attached to tissue holders and immersed in 10 ml tissue baths containing Krebs' solution bubbled with 95% O2/5% CO2. Tissues were placed under 1 g tension and incubated for 1 h equilibration. Concentration-effect curves were constructed to bradykinin in the absence and presence of new compounds.
Take DDD-(DArg-hPhe-Arg)2 [M554]: the “GPI: pA2 for bradykinin antagonist activity on isolated guinea pig ileum” value (“GPI: pA2” below) is given as 5.1. Regarding DDD-(Eac-Arg-Digl-Oic-Arg)2 [B10198-1], the “GPI: pA2” value turned out to be 5.7.

Turning to Dcg-2-Nal-Atpc-Arg [M232-3], the “GPI: pA2” value came to 5.1. Same read-out and setting: then Dcg-2Nal-Arg [M10], with 4.8; and Dcg-(D,L)Ata-Arg [M96], with 4.7. On the same count and under the same terms, the result for Dcg-Ac6c-Arg [M86] reads 5.0.

As for Dcg-Apa-Arg [M78], the “GPI: pA2” value worked out at 5.6. Still for that read-out and setting: the result for Dcg-Atpc-Arg [M232-1] reads 4.7. Still for that read-out and setting: then Dcg-BtA-Arg [M68], with 4.9. On the same count and under the same terms, the result for Dcg-Gly-Cmp-Arg [M124] reads 4.7; that for Dcg-Igl-Arg [M70], 4.8. For Dcg-Ile-Arg [M84], the “GPI: pA2” value came to 5.1. The same measure, in the same setting: then Dcg-Pac-Gly-m-ABz-2-Nal-Arg [M200-2], with 4.9; and Dcg-Trx-Arg [M134], with 4.9; and Dcg-p-Amb-Arg [M346], with 4.6. The same measure, in the same setting: the result for “Dhq-DArg-Arg-Pro-Hyp-Gly-CpG-Ser-DCpG-CpG-Arg [B9074]” reads 6.3; that for F5c-APb-Arg [M372], 4.6; that for F5c-Ana-Arg [M392], 4.5. Same read-out and setting: then F5c-Bip-Arg [M394], with 4.7; and F5c-DArg-Arg-Aud-DTic-hPhe-Arg [M766], with 5.1.

F5c-DhPhe-Arg [M730]: the “GPI: pA2” value was 4.7.

In the case of F5c-Dpr(Fbz)-Arg [M688], the “GPI: pA2” value is on record as “Inact”. Still for that read-out and setting: the result for F5c-Dpr(Paa)-Arg [M690] reads 4.8; that for F5c-Lys(F5bz)-Arg [M682], 4.9. Still for that read-out and setting: then F5c-Lys{(CH3)3}-Arg [M388], with 4.9; and F5c-PNF-Arg [M732], with 4.9. In the case of F5c-Pac-Arg [M398], the “GPI: pA2” value was “Inact”.

For F5c-Phe-Arg [M410], the “GPI: pA2” value was found to be 5.4. Consider F5c-Thi-Arg [M424], for which the “GPI: pA2” value came to 4.6. Turning to F5c-Tic-Arg [M382], the “GPI: pA2” value is 4.7.

With F5c-Trp-Arg [M426], the “GPI: pA2” value is “Inact”. The same measure, in the same setting: then F5c-Tyr-Arg [M380], with “Inact”. As to F5c-m-APa-Arg [M412], the “GPI: pA2” value was 5.8. Still for that read-out and setting: then F5c-p-ABz-Arg [M148], with 5.1; and F5c-p-Amb-APa-Arg [M352], with 4.7; and F5c-p-Amb-Arg [M348], with 4.7. Same read-out and setting: the result for Gun-2-Nal-Arg [M20] reads 4.6.

For the compound Gun-Eac-DIgl-Oic-Arg [M42], the “GPI: pA2” value is reported as 5.0.

Take Gun-Ica-Arg [M88]: the “GPI: pA2” value came to 4.7.

As to Mcg-Pac-Gly-m-ABz-2-Nal-Arg [M200-1], the “GPI: pA2” value was “Inact”.

For RPPGFT[dTic][Oic]-NH2 [B10284], the “GPI: pA2” value was 7.7. Same read-out and setting: then RPPGFT[dTic][Oic]R [B10282], with 7.3. With “ε-SUB-(Lys-DArg-Arg-Eac-Ser-DF5F-Nc7G-Arg)2 [M1038]”, the “GPI: pA2” value was found to be 6.4.

Staying with this assay, now noted: guinea pig ileum.
In the case of RPPGFSPFR [BK, reference compound], the “pD2 of bradykinin on ileum” value is on record as 7.4.

For another assay, the system named is SCLC strain SHP-77. The experiment in a line: Colorimetric tetrazolium (MTT) assay for cell survival, SCLC strain SHP-77. It counts as cell-based, human. As to conditions: SCLC strain SHP-77 in vitro. As for the experimental part: as §1
Cell growth and survival were measured by a rapid colorimetric assay based on the tetrazolium salt MTT (3-(4,5-dimethylthiazol-2-yl)-2,5-diphenyl tetrazolium bromide) (Mosmann, J Immunol. Methods 65: 55–63, 1983, with minor modifications). Briefly, 1,000 normal lung fibroblasts or normal epithelial BEAS-2B cells, 1,000 or 5,000 viable non-SCLC cells or 10,000 viable SCLC cells were plated in 100 μL of growth medium in 96-well flat-bottomed microtiter plates. Cells were incubated overnight to allow recovery. Compounds to be tested were added to the cells in triplicate in a range of concentrations and the cells were incubated at 37° C., 5% CO2, with 100% humidity. Control cells were treated in the same way without antagonists. […] Plates were incubated for 4 days, allowing sufficient time for cell replication and compound-induced cell death to occur. On day 5, 25 μL of a 2 mg/mL solution of MTT (Sigma) dissolved in RMPI-1640was added to each well. The plate was incubated for 4 h at 37° C. The supernate was removed and the blue formazan complex was dissolved by adding 100 μL of 0.02 N HCl in 75% isopropanol to all wells. Absorbance was immediately determined using a scanning multiwell plate reader. B9870 caused 50% cell death at a concentration of 0.15 μM under these conditions.
As to `CC1(C)CC(NC(=O)[C@@H](NC(=N)CCCCCCCCCCCCC(=O)O)C2Cc3ccccc3C2)CC(C)(C)N1` [M280-1], the “MTT: ED50 for killing of SCLC strain SHP-77 in vitro” value (“MTT: ED50 for killing” for short) came to 21 µM. With `CC1(C)CC(NC(=O)C(Cc2ccc3ccccc3c2)NC(=O)CCCCCNC(=O)c2cc(C(=O)NCCCCCC(=O)NC(Cc3ccc4ccccc4c3)C(=O)NC3CC(C)(C)NC(C)(C)C3)cc(C(=O)NCCCCCC(=O)NC(Cc3ccc4ccccc4c3)C(=O)NC3CC(C)(C)NC(C)(C)C3)c2)CC(C)(C)N1` (stereo not shown) [M290-2], the “MTT: ED50 for killing” value turned out to be 20 µM. The same measure, in the same setting: the result for `CC1(C)CC(NC(=O)C(NC(=O)C=Cc2ccc(N)cc2)C2Cc3ccccc3C2)CC(C)(C)N1` (stereo not shown) [M292] reads 40 µM; that for `CC1(C)CC(NC(=O)C(Cc2ccc(-c3ccccc3)cc2)NC(=O)C=Cc2cccnc2)CC(C)(C)N1` (stereo not shown) [M296], 15 µM. The same measure, in the same setting: the result for `CC1(C)CC(NC(=O)C(Cc2ccc3ccccc3c2)NC(=O)c2ccc(NC(=N)N)cc2)CC(C)(C)N1` (stereo not shown) [M306] reads >100 µM; that for `CC1(C)CC(NC(=O)C(Cc2ccc(O)cc2)NC(=O)C=Cc2c(F)c(F)c(F)c(F)c2F)CC(C)(C)N1` (stereo not shown) [M316], 50 µM.

For `CC1(C)CC(NC(=O)C2CC3CCCCC3N2C(=O)C=Cc2c(F)c(F)c(F)c(F)c2F)CC(C)(C)N1` (stereo not shown) [M320], the “MTT: ED50 for killing” value came to 13 µM. Still for that read-out and setting: the result for `CC1(C)CC(NC(=O)C2Cc3ccccc3CN2C(=O)C=Cc2c(F)c(F)c(F)c(F)c2F)CC(C)(C)N1` (stereo not shown) [M322] reads 7.6 µM; that for `Cc1cc(NC(=O)c2cccc(NC(=O)CNC(=O)/C=C/c3cccnc3)c2)c2ccccc2n1` [M428], >300 µM.

As to `CC1(C)CC(NC(=O)C(Cc2csc3ccccc23)NC(=NC2CCCCC2)NC2CCCCC2)CC(C)(C)N1` (stereo not shown) [M440], the “MTT: ED50 for killing” value came out at 30 µM. Turning to `O=C(CCCCCCCCCCC(=O)N[C@@H](Cc1cccnc1)C(=O)N[C@@H](Cc1ccc2ccccc2c1)C(=O)NC1CCCCC1)N[C@@H](Cc1cccnc1)C(=O)N[C@@H](Cc1ccc2ccccc2c1)C(=O)NC1CCCCC1` [M460], the “MTT: ED50 for killing” value turned out to be 15 µM.

As to `O=C(C=Cc1c(F)c(F)c(F)c(F)c1F)NC(Cc1ccc2ccccc2c1)C(=O)NCc1cccnc1` (stereo not shown) [M466], the “MTT: ED50 for killing” value is reported as “Inact”. For the compound `CN(C)CCCNC(=O)[C@H](Cc1ccc2ccccc2c1)NC(=O)C=Cc1ccc(NC(=O)CCCCCCCCCCC(=O)Nc2ccc(C=CC(=O)N[C@@H](Cc3ccc4ccccc4c3)C(=O)NCCCN(C)C)cc2)cc1` [M538], the “MTT: ED50 for killing” value is >80 µM.

`CCOC(=O)CN1C(C)(C)CC(NC(=O)C(Cc2ccc3ccccc3c2)NC(=O)C(C2CCCCC2)C2CCCCC2)CC1(C)C` (stereo not shown) [M572]: the “MTT: ED50 for killing” value turned out to be 2.6 µM. Same read-out and setting: then `COC(=O)C(Cc1ccc(OCc2ccccc2)cc1)N(Cc1ccc(N(C)C)cc1)C(=O)C=Cc1c(F)c(F)c(F)c(F)c1F` (stereo not shown) [M614], with 9.1 µM; and `CC1(C)CC(NC(=O)C(Cc2cccc3ccccc23)NC(=O)C(Cc2cnc[nH]2)NC(=O)CCCCCCCCCCC(=O)NC(Cc2cnc[nH]2)C(=O)NC(Cc2cccc3ccccc23)C(=O)NC2CC(C)(C)NC(C)(C)C2)CC(C)(C)N1` (stereo not shown) [M660], with 30 µM; and `CN(C)c1ccc(CNC(=O)C(Cc2ccc(OCc3c(Cl)cccc3Cl)cc2)NC(=O)C=Cc2c(F)c(F)c(F)c(F)c2F)cc1` (stereo not shown) [M798], with 37 µM. On the same count and under the same terms, then `CC1(C)CC(NC(=O)C(Cc2ccc(OCc3c(Cl)cccc3Cl)cc2)NC(=O)CN(CCN(CC(=O)NC(Cc2ccc(OCc3c(Cl)cccc3Cl)cc2)C(=O)NC2CC(C)(C)NC(C)(C)C2)CC(=O)NC(Cc2ccc(OCc3c(Cl)cccc3Cl)cc2)C(=O)NC2CC(C)(C)NC(C)(C)C2)CC(=O)NC(Cc2ccc(OCc3c(Cl)cccc3Cl)cc2)C(=O)NC2CC(C)(C)NC(C)(C)C2)CC(C)(C)N1` (stereo not shown) [M1040, EDTA-(OC2Y-ATMP)4], with 0.73 µM.

Still in this assay, the particulars now being: Table 1; SHP-77, MTT, 4 days.
As for “33Dp-DArg-Arg-Aud-Ser-D5F5-Oic-Arg [M964]”, the “MTT: ED50 for killing” value is 4 to 8 µM. The same measure, in the same setting: then “Aaa-DArg-Arg-Aud-Ser-D5F5-Oic-Arg [M956]”, with 14 µM.
